Test: Franz cell skin delivery of hexylresorcinol (HPLC)
Format: in vitro ADME
Settings: Franz cells, n=4, FIG. 3
From the text: Wash Franz cells with ethanol 70%, water and receptor solution (1×PBS, phosphate buffered saline).
Measure skin thickness and electrical resistance
Mount the tissue on Franz cells (n=4).
Once equilibrated, make sure there isn't excess moisture on the surface of the tissue (SC) by dabbing the skin surface with Kimwipes.
Carefully remove the backing on the film and place it on the donor area with a light pressure (5 times tap on skin surface); the adhesive side is in touch with skin.
Mount the donor chamber and leave it overnight
Next morning (After 16 h time point), take a sample (300 uL) (Oh), replace with fresh 1×PBS.
Add 100 uL 1×PBS to the donor chamber, let it sit for 30 sec, remove it using a plastic pipet moving around the edge of the donor. Repeat this cycle 5 times. Pool these 1×PBS solution and analyze by HPLC
Remove the donor chamber with the tissue still mounted on the Franz cells. Use a cotton swab to take out all the remained liquid on skin. Extract drug from this swab by shaking at 100 rpm overnight in 2 mL ethanol: Water (50:50 v/v).
Put the donor chamber back. After every 2 hours (2,4,6 h), take sample (300 uL) and replace with fresh receptor solution.
At 22 h, remove the donor chamber, remove skin from cells, put skin on sheets of paper and do tape stripping with 2 tapes to remove the excessive drug on skin surface. Put these 2 tapes in a well in 6-well plate for extraction. […]

CCCCCCCC/C=C\CCCCCCCC(=O)OCC(O)CO (stereo not shown) [Monumuls, glycerol oleate]
delivery of the hexylresorcinol compared to Example 16C (no emulsifier): greatly enhanced
